The values below come from PMC10507043, “Metabolite interactions in the bacterial Calvin cycle and implications for flux regulation” (Communications Biology, 2023).

Format in all cases: biochemical
For test [1], the target named is T1, syn-TKT (Synechocystis sp. PCC 6803, UniProt P73282).
T1 construct: gene tktA; recombinant from genomic DNA, pET-28a(+), E. coli BL21, HisTrap purified
T1 sequence (P73282 1-670): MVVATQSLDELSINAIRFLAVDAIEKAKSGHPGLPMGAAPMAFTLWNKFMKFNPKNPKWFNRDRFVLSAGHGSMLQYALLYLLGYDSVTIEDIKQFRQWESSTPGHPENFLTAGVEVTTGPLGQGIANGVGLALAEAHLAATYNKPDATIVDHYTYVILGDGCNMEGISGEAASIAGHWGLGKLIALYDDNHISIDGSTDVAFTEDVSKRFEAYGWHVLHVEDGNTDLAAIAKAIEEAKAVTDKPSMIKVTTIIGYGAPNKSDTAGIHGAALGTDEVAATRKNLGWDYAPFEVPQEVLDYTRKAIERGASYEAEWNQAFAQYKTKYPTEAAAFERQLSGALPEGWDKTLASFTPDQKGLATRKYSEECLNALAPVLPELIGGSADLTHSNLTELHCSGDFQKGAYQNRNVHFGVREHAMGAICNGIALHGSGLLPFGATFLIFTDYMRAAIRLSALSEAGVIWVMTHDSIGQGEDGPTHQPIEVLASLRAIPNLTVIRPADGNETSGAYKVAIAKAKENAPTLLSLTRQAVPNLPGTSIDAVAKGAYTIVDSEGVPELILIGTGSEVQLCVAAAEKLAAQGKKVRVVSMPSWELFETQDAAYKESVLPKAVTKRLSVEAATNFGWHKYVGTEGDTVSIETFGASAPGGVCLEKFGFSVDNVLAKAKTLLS
As to the kind of experiment: alcohol dehydrogenase-coupled NADH assay, inhibition. As to conditions: 1 mM AMP, glycylglycine pH 7.5, thiamine pyrophosphate, Mg2+.

Test [2] has as its target T1, syn-TKT. Put plainly: alcohol dehydrogenase-coupled NADH consumption at […] nm. The note with it: 100 mM L-erythrulose, 2 mM thiamine pyrophosphate, 5 mM MgCl2, 100 mM glycylglycine pH 7.5; no added metabolite.
For test [3], the target named is T2, cn-TKT (Cupriavidus necator, UniProt P21726).
T2 construct: gene cbbTP; recombinant from genomic DNA, pET-28a(+), E. coli BL21, HisTrap purified
T2 sequence (P21726 1-670): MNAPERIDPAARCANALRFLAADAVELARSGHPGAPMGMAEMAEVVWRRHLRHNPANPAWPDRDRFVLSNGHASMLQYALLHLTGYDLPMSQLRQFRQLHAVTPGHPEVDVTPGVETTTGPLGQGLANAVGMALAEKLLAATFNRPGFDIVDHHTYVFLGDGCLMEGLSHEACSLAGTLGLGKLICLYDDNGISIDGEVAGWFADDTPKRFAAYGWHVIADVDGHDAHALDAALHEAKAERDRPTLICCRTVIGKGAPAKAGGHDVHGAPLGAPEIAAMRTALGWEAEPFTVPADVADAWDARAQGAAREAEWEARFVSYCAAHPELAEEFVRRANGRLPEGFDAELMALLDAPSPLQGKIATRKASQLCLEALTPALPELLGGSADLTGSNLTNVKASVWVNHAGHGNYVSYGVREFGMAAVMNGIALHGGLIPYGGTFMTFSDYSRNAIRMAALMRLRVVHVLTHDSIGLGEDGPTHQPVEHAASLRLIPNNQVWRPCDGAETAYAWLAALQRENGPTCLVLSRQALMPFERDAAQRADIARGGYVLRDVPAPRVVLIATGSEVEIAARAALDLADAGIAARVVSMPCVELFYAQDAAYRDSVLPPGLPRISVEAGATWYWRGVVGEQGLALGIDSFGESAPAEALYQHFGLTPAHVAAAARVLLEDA
The description is as above. The note with it: 100 mM L-erythrulose, 2 mM thiamine pyrophosphate, 5 mM MgCl2, 100 mM glycylglycine pH 7.5; no added metabolite.

In test [4] the target is T3, syn-F/SBPase (Synechocystis sp. PCC 6803, UniProt P73922, R194H).
T3 construct: gene slr2094; recombinant, codon-optimised, pET-28a(+), E. coli BL21, HisTrap purified; homotetramer
T3 sequence (P73922 whole entry R194H): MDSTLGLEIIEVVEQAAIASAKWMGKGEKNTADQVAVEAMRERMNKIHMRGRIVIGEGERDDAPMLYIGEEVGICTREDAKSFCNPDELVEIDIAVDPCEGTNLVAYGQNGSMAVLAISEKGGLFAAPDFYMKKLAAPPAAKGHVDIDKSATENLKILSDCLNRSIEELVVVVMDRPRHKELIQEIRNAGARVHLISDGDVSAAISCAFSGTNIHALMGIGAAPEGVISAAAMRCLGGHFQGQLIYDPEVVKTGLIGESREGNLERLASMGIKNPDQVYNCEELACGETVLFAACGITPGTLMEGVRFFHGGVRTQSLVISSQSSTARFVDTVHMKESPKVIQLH
Put plainly: Malachite Green phosphate release, activation. The note with it: substrate fructose-1,6-bisphosphate; AMP-insensitive variant.

Test [5] addresses T3, syn-F/SBPase. As to the kind of experiment: Malachite Green phosphate release, inhibition. As to conditions: substrate fructose-1,6-bisphosphate; AMP-insensitive variant.
Test [6] deals with T2, cn-TKT. As to the kind of experiment: alcohol dehydrogenase-coupled NADH assay, inhibition. As to conditions: 1 mM dihydroxyacetone phosphate, glycylglycine pH 7.5, thiamine pyrophosphate, Mg2+.
The target in another test is T4, cn-F/SBPase (Cupriavidus necator, UniProt P19912).
T4 construct: gene fbp3; recombinant, codon-optimised, pET-28a(+), E. coli BL21, HisTrap purified
T4 sequence (P19912 1-364): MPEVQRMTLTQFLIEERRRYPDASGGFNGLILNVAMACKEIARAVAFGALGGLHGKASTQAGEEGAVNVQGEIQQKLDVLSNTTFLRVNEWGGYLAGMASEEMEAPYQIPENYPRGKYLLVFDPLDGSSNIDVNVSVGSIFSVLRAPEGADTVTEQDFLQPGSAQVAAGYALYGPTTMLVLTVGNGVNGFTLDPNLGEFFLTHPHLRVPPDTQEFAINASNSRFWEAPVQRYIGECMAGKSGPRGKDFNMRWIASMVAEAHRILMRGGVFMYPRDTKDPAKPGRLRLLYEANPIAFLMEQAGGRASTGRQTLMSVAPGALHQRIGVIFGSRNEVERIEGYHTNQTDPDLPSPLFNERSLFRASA
Put plainly: Malachite Green phosphate release, Hill fit. The note with it: 50 mM Tris-HCl, 15 mM MgCl2, 10 mM DTT, 30 °C; no added metabolite.

Test [7] concerns the target T5, syn-F/SBPase (Synechocystis sp. PCC 6803, UniProt P73922).
T5 construct: gene slr2094; recombinant, codon-optimised, pET-28a(+), E. coli BL21, HisTrap purified; homotetramer
T5 sequence (P73922 1-345): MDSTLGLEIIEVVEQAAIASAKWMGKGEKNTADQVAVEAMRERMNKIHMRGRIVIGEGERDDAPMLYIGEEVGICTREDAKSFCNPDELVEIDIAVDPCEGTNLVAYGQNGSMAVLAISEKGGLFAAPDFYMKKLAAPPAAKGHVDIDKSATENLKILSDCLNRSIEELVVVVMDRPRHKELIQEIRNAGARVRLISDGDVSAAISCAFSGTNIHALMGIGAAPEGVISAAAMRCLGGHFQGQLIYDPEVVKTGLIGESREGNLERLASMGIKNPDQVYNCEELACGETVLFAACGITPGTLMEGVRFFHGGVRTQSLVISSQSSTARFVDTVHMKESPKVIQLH
As to the kind of experiment: Malachite Green phosphate release, Hill fit. As to conditions: 50 mM Tris-HCl, 15 mM MgCl2, 10 mM DTT, 30 °C; no added metabolite.

SMILES strings stand for the structures.

Take `Nc1ncnc2c1ncn2[C@@H]1O[C@H](COP(=O)(O)O)[C@@H](O)[C@H]1O` [AMP]: at syn-TKT [1], the “alcohol dehydrogenase-coupled NADH assay, inhibition” value was “AMP and dihydroxyacetone phosphate, which specifically reduced the activity of syn-TKT and cn-TKT, respectively”. As to `O=P(O)(O)OC[C@H]1OC(O)[C@H](O)[C@@H]1O` (stereo partly drawn) [D-ribose-5-phosphate], the KM entry was “conversion of D-ribose-5-phosphate and L-erythrulose to sedoheptulose-7-phosphate and glycolaldehyde was measured” on syn-TKT [2]; “conversion of D-ribose-5-phosphate and L-erythrulose to sedoheptulose-7-phosphate and glycolaldehyde was measured” at cn-TKT [3]. Take `O=C[C@H](O)COP(=O)(O)O` [GAP, glyceraldehyde-3-phosphate]: on syn-F/SBPase [4], the “Malachite Green phosphate release, activation” value was “This mutant lost AMP sensitivity but retained sensitivity to both GAP activation and NADPH inhibition”. In the case of `NC(=O)C1=CN([C@@H]2O[C@H](COP(=O)(O)OP(=O)(O)OC[C@H]3O[C@@H](n4cnc5c(N)ncnc54)[C@H](OP(=O)(O)O)[C@@H]3O)[C@@H](O)[C@H]2O)C=CC1` [NADPH], the “Malachite Green phosphate release, inhibition” value at syn-F/SBPase [5] was “This mutant lost AMP sensitivity but retained sensitivity to both GAP activation and NADPH inhibition”. As to `O=C(CO)COP(=O)(O)O` [dihydroxyacetone phosphate], the “alcohol dehydrogenase-coupled NADH assay, inhibition” value at cn-TKT [6] is “AMP and dihydroxyacetone phosphate, which specifically reduced the activity of syn-TKT and cn-TKT, respectively”. With `O=P(O)(O)OC[C@H]1OC(O)(COP(=O)(O)O)[C@@H](O)[C@@H]1O` (some centres unmarked) [fructose-1,6-bisphosphate], the KM entry on cn-F/SBPase is “Initial rates of syn-F/SBPase and cn-F/SBPase were measured at different substrate concentrations”; at syn-F/SBPase [7], “activity on the substrate fructose-1,6-bisphosphate was screened using Malachite Green (MG) detection”.
